According to patent publication US20140050778A1, “NUCLEIC ACID BINDING COMPOUNDS, METHODS OF MAKING, AND USE THEREOF” (UNIVERSITY OF ROCHESTER, priority 2010, published 2014):

Assays:
mouse myoblasts = test: MTT toxicity assay; format: cell-based; details: individually
Description: For toxicity studies, mouse myoblasts or human fibroblasts were plated in a 96-well tissue culture plate in DMEM (10% fetal bovine serum, 100 units/ml penicillin, […]) and allowed to grow to approximately 80% confluence at 37° C. under CO2. Varying compound concentrations (up to 1 mM) were incubated with cells (48 hours, 37° C.). Media was then removed, and 3-(4,5-dimethylthiazol-2-yl)-2,5-diphenyltetrazolium bromide (“MTT”) in media was added to each well and incubated at 37° C. for 4 h. After removal of the MTT media, isopropanol (100 pp was added, and absorbance was measured at 600 nm on a Modulus microplate reader (Turner Biosystems).

(CUG)10 RNA = test: Fluorescence titration (benzo[g]quinoline quenching); format: binding; details: (CUG)10, 1 μM compound in HBS-N, read-out: Apparent KD
Description: The benzo[g]quinoline moiety is fluorescent, with excitation and emission maxima at 362 nm and 439 nm respectively in methanol. Fluorescence titration binding measurements were performed on a Cary Eclipse fluorescence spectrophotometer using a 10 mm path-length semimicro quartz fluorescence cell with 400 μL sample holding capacity. Absorbance measurements were carried out on a UV-Visible spectrophotometer (Shimadzu, UV-1601PC) using a 1 mL (1 cm path-length) quartz cell. Spectroscopic grade anhydrous methanol used in the measurement of relative quantum yield of the 2-ethyl benzo[g]quinoline carboxylic acid was purchased from Alfa Aesar and was used without further purification. For these measurements, known procedures were used (Lee and Grissom, “Design, Synthesis, and Characterization of Fluorescent Cobalamin Analogues with High Quantum Efficiencies,” Org. Lett. 11:2499-2502 (2009); Joseph R. Lakowicz, Principles of Fluorescence Spectroscopy, 2nd edition (Kluwer Academic/Plenum Publishers, 1999), which are hereby incorporated by reference in their entirety). Briefly, RNA (10 μM stock) in HBS-N buffer was titrated into a solution of 1 μM compound in HBS-N. After each addition of RNA, ten minutes were allowed for equilibration before recording the change in fluorescence at 468.5 nm. Fluorescence units (“FU”) were then corrected for dilution and the FU after each addition was subtracted from the FU at zero RNA concentration to give AFU. Following saturation, AFU was plotted against RNA concentration using Origin 7 (OriginLab, Inc.), and fitted to a 1:1 Langmuir binding model to obtain apparent dissociation constants (Kn). […]
Selected equilibrium affinities for (CUG)10 were confirmed by fluorescence titration. The quantum yield of the ethylbenzo[g]quinoline carboxylic acid (compound 2), relative to quinine sulfate, was determined to be 0.64 (FIGS. 5A-F). […] Apparent KD values measured in this manner are consistent with those obtained by SPR (Table 6); that they are not identical to SPR-measured values likely results from the differing formats of the two methods. […]

[1] = system: HIV-1 FSS RNA (SEQ ID NO: 7); test: SPR binding to immobilized biotinylated RNA
Description: SPR binding measurements were performed on a Biacore-X instrument (Biacore, Inc., Uppsala, Sweden) with two flow channels (FC1 and FC2). 5′-Biotinylated-RNA sequences, with a C6 linker separating the biotin label from the RNA (Integrated DNA Technologies Inc.) were immobilized on streptavidin (Rockland Immunochemicals) functionalized carboxylmethyl dextran coated sensor chips (CM5, G.E. Healthcare) using EDC/NHS (Advanced ChemTech) coupling chemistry. Filtered (0.2μ), degassed and autoclaved HBS-N buffer (0.01M Hepes, pH=7.4, 0.15 M NaCl) was employed as sample and as running buffer for all SPR experiments. A typical protocol for an experiment is as follows: A CM5 sensor chip was allowed to equilibrate to room temperature and then docked into the instrument. Following priming with running buffer, FC1 and FC2 were conditioned by manual injection of 20 μL aqueous NaOH (50 mM) at a flow rate of 30 μL/min. This was repeated 3 times followed by a wash command. Next, the carboxyl groups on the sensor chip surface in both flow cells were activated separately by injecting 60 μL of freshly prepared 1:1 mixture of EDC (0.4 M) and NHS (0.1 M) at a 5 μL/min flow rate followed by a wash. […] After washing, the surface was deactivated with 60 μL injection of ethanolamine (1M, pH=8.5) at 5 μL/min. The flow cells were primed, and the streptavidin surface in FC1 alone was blocked with 30 μL of biotin (20 μM in HBS-N) at 5 μL/min. The RNA (200 nM in running buffer, HBS-N) to be immobilized was unfolded by heating above its predicted melting temperature in a heated block for 2 min and then allowed to refold by cooling gradually to room temperature. The RNA was then immobilized in FC2 alone to response units ranging from 200-1000 RU using a 5 μL/min flow rate. Representative sensorgrams for the immobilization procedure is shown in FIGS. 2A-B. Two 20 μL aliquots of NaCl (0.5 M) were injected at a 30 μL/min flow rate to remove non-specifically bound RNA. The level of RNA immobilized was noted when the baseline was stable, usually after repeated buffer injection followed by a “prime” command. Binding measurements were performed by flowing various concentrations of the compounds to be analyzed over the immobilized RNA and recording the reference-subtracted (FC2−FC1) sensorgrams. For kinetic analysis, at least five sensorgrams corresponding to different concentrations of compound (usually ranging from 0.05-1 μM in HBS-N) were obtained using flow rates of either 60 μL/min or 30 μL/min. The experimental sensorgrams were globally fitted to a 1:1 binding equation (Biaevaluation software) to obtain association rates (ka) and dissociation rates ([…]) as well as equilibrium binding constants (KD). To measure the binding stoichiometry (n), the relations in equations (1-3) below were used: […]
where RUmax is the maximum resonance response unit at saturation, RURNA is the amount RU of RNA immobilized, n is the stoichiometry, MWcompound and MWRNA are molecular weights of compound and RNA respectively, and RUeq represents the resonance response at steady-state (equilibrium). The response units at equilibrium were subjected to Scatchard binding plots of (r/Cfree vs. r). […]
SPR and fluorescence titration experiments, performed using the protocol described in Examples 3 and 4 above, except using as the target a highly conserved RNA sequence responsible for regulating the production of the Gag-Pol polyprotein via a −1 ribosomal frameshift, which occurs along a “slippery sequence” in gag-pol mRNA (SEQ ID NO: 7). This “frameshift stimulatory sequence” (or “HIV-1 FSS”) consists of an upper stemloop and a lower stem, separated by a purine bulge in the most common types of HIV (FIG. 19). For the fluorescent titration experiments, the upper stemloop of SEQ ID NO: 7 was employed. Cell uptake and toxicity studies were carried out using human fibroblasts according to Example 5 above.

yeast tRNA = test: Fluorescence titration control; format: binding; details: yeast tRNA titrated into a mixture of compounds 4 and 5
Description: The benzo[g]quinoline moiety is fluorescent, with excitation and emission maxima at 362 nm and 439 nm respectively in methanol. Fluorescence titration binding measurements were performed on a Cary Eclipse fluorescence spectrophotometer using a 10 mm path-length semimicro quartz fluorescence cell with 400 μL sample holding capacity. Absorbance measurements were carried out on a UV-Visible spectrophotometer (Shimadzu, UV-1601PC) using a 1 mL (1 cm path-length) quartz cell. Spectroscopic grade anhydrous methanol used in the measurement of relative quantum yield of the 2-ethyl benzo[g]quinoline carboxylic acid was purchased from Alfa Aesar and was used without further purification. For these measurements, known procedures were used (Lee and Grissom, “Design, Synthesis, and Characterization of Fluorescent Cobalamin Analogues with High Quantum Efficiencies,” Org. Lett. 11:2499-2502 (2009); Joseph R. Lakowicz, Principles of Fluorescence Spectroscopy, 2nd edition (Kluwer Academic/Plenum Publishers, 1999), which are hereby incorporated by reference in their entirety). Briefly, RNA (10 μM stock) in HBS-N buffer was titrated into a solution of 1 μM compound in HBS-N. After each addition of RNA, ten minutes were allowed for equilibration before recording the change in fluorescence at 468.5 nm. […]
Selected equilibrium affinities for (CUG)10 were confirmed by fluorescence titration. […]

SMILES | toxicity (MTT) (mouse myoblasts) | Kd ((CUG)10 RNA) | Residence time (t1/2) for compound binding to RNA [1] | Off-rates (koff) ([1]; SPR) | On-rates (kon) ([1]; SPR) | Kd ([1]; SPR, read-out: apparent KD) | binding of yeast tRNA (yeast tRNA)
CCc1nc2cc3ccccc3cc2cc1C(=O)N1CCC[C@H]1C(=O)N[C@@H](C/C=C\C[C@H](NC(=O)[C@@H]1CCCN1C(=O)c1cc2cc3ccccc3cc2nc1CC)C(=O)N[C@@H](CCCCN)C(=O)NCCCN)C(=O)N[C@@H](CCCCN)C(=O)NCCCN [Compound 4] | increasing toxicity was observed in mouse myoblasts above 100 μM | 66.3 ± 2.1 nM | 0.7548 min | 0.0153 s⁻¹ | 11300 M⁻¹ s⁻¹ | 1242.5 ± 0.6 nM | No binding
CCc1nc2cc3ccccc3cc2cc1C(=O)N1CCC[C@H]1C(=O)N[C@@H](C/C=C/C[C@H](NC(=O)[C@@H]1CCCN1C(=O)c1cc2cc3ccccc3cc2nc1CC)C(=O)N[C@@H](CCCCN)C(=O)NCCCN)C(=O)N[C@@H](CCCCN)C(=O)NCCCN [Compound 5] | increasing toxicity was observed in mouse myoblasts above 100 μM | 70.4 ± 1.1 nM | 2.939 min |  |  |  | No binding
